Test results as given in patent US11884676B2, “Substituted pyrimido[1,2-b]pyridazines as positive allosteric modulators of the muscarinic acetylcholine receptor M4” (Vanderbilt University, priority 2020, dated 2024).

Biological target: T1, Human M4 (Homo sapiens, UniProt P08173)
T1 construct: expressed in transfected cells
T1 sequence (P08173 1-479): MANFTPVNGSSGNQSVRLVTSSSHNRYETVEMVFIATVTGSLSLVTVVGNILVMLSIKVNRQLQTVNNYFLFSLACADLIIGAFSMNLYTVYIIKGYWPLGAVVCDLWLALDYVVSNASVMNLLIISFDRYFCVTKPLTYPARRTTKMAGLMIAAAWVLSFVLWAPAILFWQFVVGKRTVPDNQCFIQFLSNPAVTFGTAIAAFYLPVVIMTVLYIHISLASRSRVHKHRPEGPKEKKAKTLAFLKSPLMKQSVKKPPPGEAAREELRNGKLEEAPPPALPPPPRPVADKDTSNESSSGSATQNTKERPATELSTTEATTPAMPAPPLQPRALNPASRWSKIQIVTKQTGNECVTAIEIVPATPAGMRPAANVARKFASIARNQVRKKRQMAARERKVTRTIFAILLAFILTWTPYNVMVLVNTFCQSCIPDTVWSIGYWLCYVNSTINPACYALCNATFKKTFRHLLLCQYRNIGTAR
Experiment: mAChR M4 cell-based functional assay (calcium flux, PAM mode)
Details: hM4-Gqi5 CHO-K1 cells; for Emax at 30 µM: CHO-K1, % ACh maximum at 30 μM; for EC50: concentration-dependent increase in the EC20 acetylcholine response
In short: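 PAM potency (EC50) and Emax came from four-parameter fits of the rise in EC20 acetylcholine-evoked calcium signal (Fluo-4, FDSS, 1 Hz). Human M4/Gqi5 CHO-K1 stable line; 11-point 1:3 compound series preceded ACh EC20 addition at 144 s, with EC80 ACh added at 230 s.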

Compound	Emax at 30 µM	EC50
Cc1cc2nccc(=O)n2nc1N1CC[C@@H](Oc2ccc3c(c2)OCCO3)[C@@H](F)C1 [Compound 34, 7-((3S,4R)-4-((2,3-dihydrobenzo[b][1,4]dioxin-6-yl)oxy)-3-fluoropiperidin-1-yl)-8-methyl-4H-pyrimido[1,2-b]pyridazin-4-one]	116%	70 nM
[2H]C1([2H])Oc2ccc(O[C@H]3CCN(c4nn5c(=O)c(F)c(C)nc5cc4C)C[C@@H]3F)cc2OC1([2H])[2H] [Compound 38, 7-((3S,4S)-4-((2,3-dihydrobenzo[b][1,4]dioxin-6-yl-2,2,3,3-d4)oxy)-3-fluoropiperidin-1-yl)-3-fluoro-2,8-dimethyl-4H-pyrimido[1,2-b]pyridazin-4-one]	107%	211 nM
[2H]C1([2H])Oc2ccc(OC3CCN(c4nn5c(=O)c(F)c(C)nc5c(C)c4C)CC3)cc2OC1([2H])[2H] [Compound 16, 7-(4-((2,3-Dihydrobenzo[b][1,4]dioxin-6-yl-2,2,3,3-d4)oxy)piperidin-1-yl)-3-fluoro-2,8,9-trimethyl-4H-pyrimido[1,2-b]pyridazin-4-one]	117%	92 nM
Cc1ccc(OC2CCN(c3nn4c(=O)cc(C(F)F)nc4c(C)c3C)CC2)cc1 [Compound 85, 2-(difluoromethyl)-8,9-dimethyl-7-(4-(p-tolyloxy)piperidin-1-yl)-4H-pyrimido[1,2-b]pyridazin-4-one]	101%	385 nM
Cc1cc(=O)n2nc(N3CCC(Oc4ccc5c(c4)CCNC5=O)CC3)c(C)cc2n1 [Compound 82, 2,8-dimethyl-7-(4-((1-oxo-1,2,3,4-tetrahydroisoquinolin-6-yl)oxy)piperidin-1-yl)-4H-pyrimido[1,2-b]pyridazin-4-one]	74%	3340 nM
[2H]C1([2H])Oc2cc(O[C@H]3CCN(c4nn5c(=O)ccnc5cc4C)[C@H](C)C3)cc(F)c2OC1([2H])[2H] [Compound 130, 7-((2R,4S)-4-((8-fluoro-2,3-dihydrobenzo[b][1,4]dioxin-6-yl-2,2,3,3-d4)oxy)-2-methylpiperidin-1-yl)-8-methyl-4H-pyrimido[1,2-b]pyridazin-4-one]	116%	160 nM
Cc1cc(=O)n2nc(N3CCC(Oc4ccc5c(c4)CCN(C)C5=O)CC3)c(C)cc2n1 [Compound 74, 2,8-dimethyl-7-(4-((2-methyl-1-oxo-1,2,3,4-tetrahydroisoquinolin-6-yl)oxy)piperidin-1-yl)-4H-pyrimido[1,2-b]pyridazin-4-one]	84%	2360 nM
[2H]C1([2H])Oc2ccc(O[C@H]3CCN(c4nn5c(=O)ccnc5c(C)c4C)C[C@@H]3F)cc2OC1([2H])[2H] [Compound 117, 7-((3S,4S)-4-((2,3-dihydrobenzo[b][1,4]dioxin-6-yl-2,2,3,3-d4)oxy)-3-fluoropiperidin-1-yl)-8,9-dimethyl-4H-pyrimido[1,2-b]pyridazin-4-one]	93%	326 nM
Cc1ccc(OC2CCN(c3nn4c(=O)ccnc4cc3C)CC2)cc1F [Compound 88, 7-(4-(3-fluoro-4-methylphenoxy)piperidin-1-yl)-8-methyl-4H-pyrimido[1,2-b]pyridazin-4-one]	77%	383 nM
Cc1cc2nccc(=O)n2nc1N1CC[C@@H](Oc2ccc3c(c2)CCOC3)[C@H](F)C1 [Compound 54, 7-((3R,4R)-3-fluoro-4-(isochroman-6-yloxy)piperidin-1-yl)-8-methyl-4H-pyrimido[1,2-b]pyridazin-4-one]	89%	319 nM
[2H]C1([2H])CC(Oc2ccc3c(c2)OC([2H])([2H])C([2H])([2H])O3)CC([2H])([2H])N1c1nn2c(=O)ccnc2cc1C [Compound 137, 7-(4-((2,3-dihydrobenzo[b][1,4]dioxin-6-yl-2,2,3,3-d4)oxy)piperidin-1-yl-2,2,6,6-d4)-8-methyl-4H-pyrimido[1,2-b]pyridazin-4-one]	105%	45 nM
Cc1cc2nccc(=O)n2nc1N1CC[C@H](Oc2ccc3c(c2)OCCO3)C[C@H]1C (stereo in doubt) [Compound 107, 7-((2R,4S)-4-((2,3-dihydrobenzo[b][1,4]dioxin-6-yl)oxy)-2-methylpiperidin-1-yl)-8-methyl-4H-pyrimido[1,2-b]pyridazin-4-one]	55%	–

Continued, values first:

Emax at 30 µM	EC50	Compound
108%	17 nM	[2H]C1(Oc2ccc3c(c2)OCO3)CCN(c2nn3c(=O)cc(C(F)F)nc3cc2C)CC1 [Compound 66, 7-(4-(benzo[d][1,3]dioxol-5-yloxy)piperidin-1-yl-4-d)-2-(difluoromethyl)-8-methyl-4H-pyrimido[1,2-b]pyridazin-4-one]
86%	30 nM	[2H]C1([2H])Oc2ccc(OC3CCN(c4nn5c(=O)cc(C)nc5cc4C)CC3)cc2OC1([2H])[2H] [Compound 3, 7-(4-((2,3-Dihydrobenzo[b][1,4]dioxin-6-yl-2,2,3,3-d4)oxy)piperidin-1-yl)-2,8-dimethyl-4H-pyrimido[1,2-b]pyridazin-4-one]
100%	26 nM	[2H]C1([2H])Oc2ccc(OC3CCN(c4nn5c(=O)ccnc5c(C)c4C)CC3)cc2OC1([2H])[2H] [Compound 2, 7-(4-((2,3-Dihydrobenzo[b][1,4]dioxin-6-yl-2,2,3,3-d4)oxy)piperidin-1-yl)-8,9-dimethyl-4H-pyrimido[1,2-b]pyridazin-4-one]
91%	12 nM	[2H]C1([2H])Oc2ccc(OC3CCN(c4nn5c(=O)c(Cl)c(C)nc5cc4C)CC3)cc2OC1([2H])[2H] [Compound 17, 3-Chloro-7-(4-((2,3-dihydrobenzo[b][1,4]dioxin-6-yl-2,2,3,3-d4)oxy)piperidin-1-yl)-2,8-dimethyl-4H-pyrimido[1,2-b]pyridazin-4-one]
94%	12 nM	[2H]C1(Oc2ccc3c(c2)OCCO3)CCN(c2nn3c(=O)cc(C(F)F)nc3cc2C)CC1 [Compound 61, 2-(difluoromethyl)-7-(4-((2,3-dihydrobenzo[b][1,4]dioxin-6-yl)oxy)piperidin-1-yl-4-d)-8-methyl-4H-pyrimido[1,2-b]pyridazin-4-one]
77%	26 nM	[2H]C1(Oc2ccc3c(c2)OC([2H])([2H])C([2H])([2H])O3)CCN(c2nn3c(=O)cc(C(F)(F)F)nc3cc2C)CC1 [Compound 45, 7-(4-((2,3-dihydrobenzo[b][1,4]dioxin-6-yl-2,2,3,3-d4)oxy)piperidin-1-yl-4-d)-8-methyl-2-(trifluoromethyl)-4H-pyrimido[1,2-b]pyridazin-4-one]
80%	43 nM	[2H]C1([2H])Oc2ccc(OC3CCN(c4nn5c(=O)c(C)cnc5cc4C)CC3)cc2OC1([2H])[2H] [Compound 29, 7-(4-((2,3-dihydrobenzo[b][1,4]dioxin-6-yl-2,2,3,3-d4)oxy)piperidin-1-yl)-3,8-dimethyl-4H-pyrimido[1,2-b]pyridazin-4-one]
108%	20 nM	[2H]C1(Oc2ccc3c(c2)OC([2H])([2H])C([2H])([2H])O3)CCN(c2nn3c(=O)cc(C(F)F)nc3cc2C)CC1 [Compound 65, 2-(difluoromethyl)-7-(4-((2,3-dihydrobenzo[b][1,4]dioxin-6-yl-2,2,3,3-d4)oxy)piperidin-1-yl-4-d)-8-methyl-4H-pyrimido[1,2-b]pyridazin-4-one]
